Positions of bridges follow the written chain, without caps; N, C: chain ends. Non-standard residues stand in square brackets, D forms with d. Residues, ends and D or L forms follow the SMILES beside them. *: point of attachment. Phe(F5) = N[C@@H](Cc1c(F)c(F)c(F)c(F)c1F)C(=O)O; Dihydroorotyl(S) = O=C1C[C@@H](C(=O)*)NC(=O)N1; Phe(3-Cl) = N[C@@H](Cc1cccc(Cl)c1)C(=O)O; Phe(4-F) = N[C@@H](Cc1ccc(F)cc1)C(=O)O; His(τ-Me) = Cn1cnc(C[C@H](N)C(=O)O)c1; Bta = N[C@@H](Cc1csc2ccccc12)C(=O)O; Hyp = O=C(O)[C@@H]1C[C@@H](O)CN1; d(hLeu) = CC(C)CC[C@@H](N)C(=O)O; Tic = O=C(O)[C@@H]1Cc2ccccc2CN1; Cha = N[C@@H](CC1CCCCC1)C(=O)O; Cit = NC(=O)NCCC[C@H](N)C(=O)O; dCha = N[C@H](CC1CCCCC1)C(=O)O; Nle = CCCC[C@H](N)C(=O)O; Orn = NCCC[C@H](N)C(=O)O; Aze = O=C(O)[C@@H]1CCN1; Dab = NCC[C@H](N)C(=O)O; Piv = CC(C)(C)C(=O)*; Propionyl = CCC(=O)*

One assay addresses T1, human C5aR(CD88) (Homo sapiens, UniProt P21730).
T1 construct: expressed in transfected cells; host or cells: rat basophilic leukemia cells (RBL)
T1 sequence (P21730 1-350): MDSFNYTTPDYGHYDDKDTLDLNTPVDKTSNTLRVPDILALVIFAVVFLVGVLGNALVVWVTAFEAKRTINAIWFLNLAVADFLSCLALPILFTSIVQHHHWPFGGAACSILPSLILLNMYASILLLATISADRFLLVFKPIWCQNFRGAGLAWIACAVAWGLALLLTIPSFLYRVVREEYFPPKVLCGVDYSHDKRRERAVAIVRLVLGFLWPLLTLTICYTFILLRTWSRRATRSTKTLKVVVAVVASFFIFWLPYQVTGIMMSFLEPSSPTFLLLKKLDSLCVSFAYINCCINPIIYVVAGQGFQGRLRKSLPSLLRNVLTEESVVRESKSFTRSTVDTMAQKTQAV
Put plainly: Determination of the IC50 value in an enzyme release assay (functional assay, antagonistic activity). The class given is cell-based. The conditions noted are these: antagonistic activity; IC50 group in enzyme release assay, RBL cells expressing human C5aR(CD88); read-out: activity (group).
On to `CC(=O)N[C@@H](Cc1ccccc1)C(=O)N[C@@H](CCCNC(=N)N)C(=O)N1CCC[C@H]1C(=O)N[C@H](CC1CCCCC1)C(=O)N[C@@H](Cc1csc2ccccc12)C(=O)N[C@@H](Cc1ccccc1)C(N)=O` [Compound 122, Ac-Phe-Arg-Pro-cha-Bta-Phe-NH2] (Ac-FRP[dCha][Bta]F-NH2), for which the IC50 was in the range of 20 to 50 nM.
The same measure, in the same setting: the figure for `CCCC[C@@H]1NC(=O)[C@H](Cc2cccc(Cl)c2)NC(=O)[C@@H](CCC(C)C)NC(=O)[C@@H]2C[C@@H](OC)CN2C(=O)[C@@H](NC(=O)[C@@H](N)Cc2ccccc2)CCCNC1=O` [Compound 354, H-Phe-[Orn-Hym-hle-Mcf-Nle]] (H-F[Orn][Hyp](Me)[d(hLeu)][Phe(3-Cl)][Nle]; lactam 2-C) is 50 to 200 nM; for `CSCC[C@@H]1NC(=O)[C@H](Cc2c[nH]c3ccccc23)NC(=O)[C@@H](CC2CCCCC2)NC(=O)[C@@H]2CCCN2C(=O)[C@@H](NC(=O)[C@H](Cc2ccccc2)NC(C)=O)CCCNC1=O` [Compound 29, Ac-Phe-[Orn-Pro-cha-Trp-Met]] (Ac-F[Orn]P[dCha]WM; lactam 2-C) it is 50 to 200 nM; for `CC(=O)N[C@@H](Cc1ccccc1)C(=O)N[C@@H](CCCN)C(=O)N1CCC[C@H]1C(=O)N[C@H](CCC(C)C)C(=O)N[C@@H](Cc1csc2ccccc12)C(=O)N[C@@H](Cc1c(F)c(F)c(F)c(F)c1F)C(N)=O` [Compound 272, Ac-Phe-Orn-Pro-hle-Bta-5Ff-NH2] (Ac-F[Orn]P[d(hLeu)][Bta][Phe(F5)]-NH2) it is 50 to 200 nM.
Same read-out and setting: the figure for `CCCC[C@@H]1NC(=O)[C@H](Cc2c[nH]c3ccccc23)NC(=O)[C@@H](CC2CCCCC2)NC(=O)[C@@H]2Cc3ccccc3CN2C(=O)[C@@H](NC(=O)[C@H](Cc2ccccc2)NC(C)=O)CCCNC1=O` [Compound 205, Ac-Phe-[Orn-Tic-cha-Trp-Nle]] (Ac-F[Orn][Tic][dCha]W[Nle]; lactam 2-C) is 50 to 200 nM; for `CC(=O)N[C@@H](Cc1ccccc1)C(=O)N[C@H]1CCCNC(=O)[C@H](Cc2cn(C)cn2)NC(=O)[C@H](Cc2c[nH]c3ccccc23)NC(=O)[C@@H](CC2CCCCC2)NC(=O)[C@@H]2CCCN2C1=O` [Compound 20, Ac-Phe-[Orn-Pro-cha-Trp-Ecr]] (Ac-F[Orn]P[dCha]W[His(τ-Me)]; lactam 2-C) it is 50 to 200 nM; for `CC(=O)N[C@@H](Cc1ccccc1)C(=O)N[C@@H](CCCNC(N)=O)C(=O)N1C[C@H](O)C[C@H]1C(=O)N[C@H](CCC(C)C)C(=O)N[C@@H](Cc1csc2ccccc12)C(=O)N[C@@H](Cc1ccccc1)C(N)=O` [Compound 209, Ac-Phe-Cit-Hyp-hle-Bta-Phe-NH2] (Ac-F[Cit][Hyp][d(hLeu)][Bta]F-NH2) it is 50 to 200 nM.
As for `CC(C)(C)C(=O)N[C@@H](Cc1ccccc1)C(=O)N[C@@H](CCCN)C(=O)N1CCC[C@H]1C(=O)N[C@H](CC1CCCCC1)C(=O)N[C@@H](Cc1csc2ccccc12)C(=O)N[C@@H](Cc1ccccc1)C(N)=O` [Compound 134, ^tBu-CO-Phe-Orn-Pro-cha-Bta-Phe-NH2] (Piv-F[Orn]P[dCha][Bta]F-NH2), the IC50 lay in the range of 50 to 200 nM.
Still for that read-out and setting: the figure for `CC(C)CC[C@@H](NC(=O)[C@@H]1CCCN1C(=O)[C@H](CCCN)NC(=O)[C@H](Cc1ccccc1)NC(=O)[C@@H]1CC(=O)NC(=O)N1)C(=O)N[C@@H](Cc1csc2ccccc12)C(=O)N[C@@H](Cc1ccccc1)C(N)=O` [Compound 350, Hoo-Phe-Orn-Pro-hle-Bta-Phe-NH2] ({Dihydroorotyl(S)}-F[Orn]P[d(hLeu)][Bta]F-NH2) is 20 to 50 nM; for `CC(=O)N[C@@H](CCN)C(=O)N[C@@H](Cc1ccccc1)C(=O)N[C@@H](CCCN)C(=O)N1CC[C@H]1C(=O)N[C@H](CC1CCCCC1)C(=O)N[C@@H](Cc1csc2ccccc12)C(=O)N[C@@H](Cc1ccccc1)C(N)=O` [Compound 141, Ac-Dab-Phe-Orn-Aze-cha-Bta-Phe-NH2] (Ac-[Dab]F[Orn][Aze][dCha][Bta]F-NH2) it is 50 to 200 nM.
The same measure, in the same setting: under `CC(=O)N[C@@H](Cc1ccccc1)C(=O)N[C@@H](CCCN)C(=O)N1CCC[C@H]1C(=O)N[C@H](CCC(C)C)C(=O)N[C@@H](Cc1ccc(F)cc1)C(=O)N[C@@H](CC1CCCCC1)C(N)=O` [Compound 298, Ac-Phe-Orn-Pro-hle-Pff-Cha-NH2] (Ac-F[Orn]P[d(hLeu)][Phe(4-F)][Cha]-NH2) stands 50 to 200 nM; under `CCC(=O)N[C@@H](Cc1ccccc1)C(=O)N[C@@H](CCCN)C(=O)N1CCC[C@H]1C(=O)N[C@H](CC1CCCCC1)C(=O)N[C@@H](Cc1csc2ccccc12)C(=O)N[C@@H](Cc1ccccc1)C(N)=O` [Compound 316, CH3CH2CO-Phe-Orn-Pro-cha-Bta-Phe-NH2] (Propionyl-F[Orn]P[dCha][Bta]F-NH2), 20 to 50 nM.

Still in this assay, the particulars now being: functional assay of example 11; noteworthy = IC50 less than 200 nM.
As to `CSCC[C@@H]1NC(=O)[C@H](Cc2c[nH]c3ccccc23)NC(=O)[C@@H](CC2CCCCC2)NC(=O)[C@@H]2CCCN2C(=O)[C@@H](NC(=O)[C@H](Cc2ccccc2)NC(C)=O)CCCNC1=O` [Compound 29, Ac-Phe-[Orn-Pro-cha-Trp-Met]] (Ac-F[Orn]P[dCha]WM; lactam 2-C), the “inhibitory activity (in words)” value is recorded as “without significant loss of activity”.
The same measure, in the same setting: the entry for `CC(=O)N[C@@H](Cc1ccccc1)C(=O)N[C@H]1CCCNC(=O)[C@H](Cc2cn(C)cn2)NC(=O)[C@H](Cc2c[nH]c3ccccc23)NC(=O)[C@@H](CC2CCCCC2)NC(=O)[C@@H]2CCCN2C1=O` [Compound 20, Ac-Phe-[Orn-Pro-cha-Trp-Ecr]] (Ac-F[Orn]P[dCha]W[His(τ-Me)]; lactam 2-C) is “noteworthy inhibitory activity”.

The same assay, now with this note: functional assay of example 11; noteworthy = IC50 less than 200 nM; listed as Ac-Phe-[Orn-Pro-cha-Trp-Met].
Take `CSCC[C@@H]1NC(=O)[C@H](Cc2c[nH]c3ccccc23)NC(=O)[C@@H](CC2CCCCC2)NC(=O)[C@@H]2CCCN2C(=O)[C@@H](NC(=O)[C@H](Cc2ccccc2)NC(C)=O)CCCNC1=O` [Compound 29, Ac-Phe-[Orn-Pro-cha-Trp-Met]] (Ac-F[Orn]P[dCha]WM; lactam 2-C): the “inhibitory activity (in words)” value is “noteworthy inhibitory activity”.

The record behind these values is US20080161232A1, “C5a Receptor Antagonist” (JERINI AG, priority 2005, published 2008).
